Laboratory results taken from patent US9529005B2, “Modulating bacterial MAM polypeptides in pathogenic disease” (priority 2011, dated 2016).
In brackets after ≈: the same amount, converted by molar mass. Read-outs that look alike come from different tables or passages of the source.

What was measured:
Test in all cases: Antimicrobial susceptibility testing (MIC), BD Phoenix Automated Microbiology System; as to interpretation of the result: key: R, resistant; I, intermediate; S, susceptible; R*: *As a rule, when ESBL is detected, an interpretation of susceptible or intermediate for penicillins, cephalosporins and aztreonam is reported as resistant
Type in all cases: cell-based
[1] = test system: Acinetobacter baumannii; settings: for MIC: Acinetobacter baumannii; as to interpretation of the result: key: R, resistant; I, intermediate; S, susceptible; R*: *As a rule, when ESBL is detected, an interpretation of susceptible or intermediate for penicillins, cephalosporins and aztreonam is reported as resistant
[2] = test system: Escherichia coli; settings: for MIC: Escherichia coli; as to interpretation of the result: key: R, resistant; I, intermediate; S, susceptible; R*: *As a rule, when ESBL is detected, an interpretation of susceptible or intermediate for penicillins, cephalosporins and aztreonam is reported as resistant
[3] = test system: Klebsiella ssp.; settings: for MIC: Klebsiella; as to interpretation of the result: key: R, resistant; I, intermediate; S, susceptible; R*: *As a rule, when ESBL is detected, an interpretation of susceptible or intermediate for penicillins, cephalosporins and aztreonam is reported as resistant
[4] = test system: Pseudomonas aeruginosa; settings: for MIC: Pseudomonas aeruginosa
[5] = Acinetobacter baumannii isolate 1
[6] = Acinetobacter baumannii isolate 2
[7] = Acinetobacter baumannii isolate 3
[8] = Acinetobacter baumannii isolate 4
[9] = Acinetobacter baumannii isolate 5
[10] = Pseudomonas aeruginosa isolate 1
[11] = Pseudomonas aeruginosa isolate 2
[12] = Pseudomonas aeruginosa isolate 3
[13] = Pseudomonas aeruginosa isolate 4
[14] = Pseudomonas aeruginosa isolate 5

| Compound | interpretation of the result [1, 5] | interpretation of the result [1, 6] | interpretation of the result [1, 7] | interpretation of the result [1, 8] | interpretation of the result [1, 9] | interpretation of the result ([2]; Escherichia coli isolate 1) | interpretation of the result ([2]; Escherichia coli isolate 2) | interpretation of the result ([2]; Escherichia coli isolate 3) | interpretation of the result ([2]; Escherichia coli isolate 4) | interpretation of the result ([2]; Escherichia coli isolate 5) | interpretation of the result ([3]; Klebsiella ssp. isolate 1) | interpretation of the result ([3]; Klebsiella ssp. isolate 2) | interpretation of the result ([3]; Klebsiella ssp. isolate 3) | interpretation of the result ([3]; Klebsiella ssp. isolate 4) | interpretation of the result ([3]; Klebsiella ssp. isolate 5) | interpretation of the result [4, 10] | interpretation of the result [4, 11] | interpretation of the result [4, 12] | interpretation of the result [4, 13] | interpretation of the result [4, 14] | further results |
| --- | --- | --- | --- | --- | --- | --- | --- | --- | --- | --- | --- | --- | --- | --- | --- | --- | --- | --- | --- | --- | --- |
| CN(C)[C@@H]1C(O)=C(C(N)=O)C(=O)[C@@]2(O)C(O)=C3C(=O)c4c(O)cccc4[C@@](C)(O)[C@H]3C[C@@H]12 [Tet., Tetracycline] | R | S | R | R | I | R | S | R | R | R | R | R | R | R | R | R | R | R | R | R | MIC ([1]; Acinetobacter baumannii isolate 1, read-out: minimal inhibiting concentration): > 8 µg/mL; MIC ([1]; Acinetobacter baumannii isolate 2, read-out: minimal inhibiting concentration): 4 µg/mL (≈ 9 µM); MIC ([1]; Acinetobacter baumannii isolate 3, read-out: minimal inhibiting concentration): > 8 µg/mL; MIC ([1]; Acinetobacter baumannii isolate 4, read-out: minimal inhibiting concentration): > 8 µg/mL; MIC ([1]; Acinetobacter baumannii isolate 5, read-out: minimal inhibiting concentration): 8 µg/mL (≈ 18 µM); MIC ([2]; Escherichia coli isolate 1, read-out: minimal inhibiting concentration): > 8 µg/mL; MIC ([2]; Escherichia coli isolate 2, read-out: minimal inhibiting concentration): ≤ 2 µg/mL; MIC ([2]; Escherichia coli isolate 3, read-out: minimal inhibiting concentration): > 8 µg/mL; MIC ([2]; Escherichia coli isolate 4, read-out: minimal inhibiting concentration): > 8 µg/mL; MIC ([2]; Escherichia coli isolate 5, read-out: minimal inhibiting concentration): > 8 µg/mL; MIC ([3]; Klebsiella ssp. isolate 1, read-out: minimal inhibiting concentration): > 8 µg/mL; MIC ([3]; Klebsiella ssp. isolate 2, read-out: minimal inhibiting concentration): > 8 µg/mL; MIC ([3]; Klebsiella ssp. isolate 3, read-out: minimal inhibiting concentration): > 8 µg/mL; MIC ([3]; Klebsiella ssp. isolate 4, read-out: minimal inhibiting concentration): > 8 µg/mL; MIC ([3]; Klebsiella ssp. isolate 5, read-out: minimal inhibiting concentration): > 8 µg/mL; MIC ([4]; Pseudomonas aeruginosa isolate 1, read-out: minimal inhibiting concentration): > 8 µg/mL; MIC ([4]; Pseudomonas aeruginosa isolate 2, read-out: minimal inhibiting concentration): > 8 µg/mL; MIC ([4]; Pseudomonas aeruginosa isolate 3, read-out: minimal inhibiting concentration): > 8 µg/mL; MIC ([4]; Pseudomonas aeruginosa isolate 4, read-out: minimal inhibiting concentration): > 8 µg/mL; MIC ([4]; Pseudomonas aeruginosa isolate 5, read-out: minimal inhibiting concentration): > 8 µg/mL |
| NC[C@H]1O[C@H](O[C@H]2[C@H](O)[C@@H](O[C@H]3O[C@H](CO)[C@@H](O)[C@H](N)[C@H]3O)[C@H](N)C[C@@H]2N)[C@H](N)C[C@@H]1O [Tob., Tobramycin] | I | R | R | R | S | R | R | R | S | R | I | R | I | I | R | S | R | S | R | R | MIC ([1]; read-out: minimal inhibiting concentration, Acinetobacter baumannii isolate 1): 8 µg/mL (≈ 17.1 µM); MIC ([1]; read-out: minimal inhibiting concentration, Acinetobacter baumannii isolate 2): > 8 µg/mL; MIC ([1]; read-out: minimal inhibiting concentration, Acinetobacter baumannii isolate 3): > 8 µg/mL; MIC ([1]; read-out: minimal inhibiting concentration, Acinetobacter baumannii isolate 4): > 8 µg/mL; MIC ([1]; read-out: minimal inhibiting concentration, Acinetobacter baumannii isolate 5): 4 µg/mL (≈ 8.56 µM); MIC ([2]; read-out: minimal inhibiting concentration, Escherichia coli isolate 1): > 8 µg/mL; MIC ([2]; read-out: minimal inhibiting concentration, Escherichia coli isolate 2): > 8 µg/mL; MIC ([2]; read-out: minimal inhibiting concentration, Escherichia coli isolate 3): > 8 µg/mL; MIC ([2]; read-out: minimal inhibiting concentration, Escherichia coli isolate 4): ≤ 2 µg/mL; MIC ([2]; read-out: minimal inhibiting concentration, Escherichia coli isolate 5): > 8 µg/mL; MIC ([3]; read-out: minimal inhibiting concentration, Klebsiella ssp. isolate 1): 8 µg/mL (≈ 17.1 µM); MIC ([3]; read-out: minimal inhibiting concentration, Klebsiella ssp. isolate 2): > 8 µg/mL; MIC ([3]; read-out: minimal inhibiting concentration, Klebsiella ssp. isolate 3): 8 µg/mL (≈ 17.1 µM); MIC ([3]; read-out: minimal inhibiting concentration, Klebsiella ssp. isolate 4): 8 µg/mL (≈ 17.1 µM); MIC ([3]; read-out: minimal inhibiting concentration, Klebsiella ssp. isolate 5): > 8 µg/mL; MIC ([4]; read-out: minimal inhibiting concentration, Pseudomonas aeruginosa isolate 1): ≤ 2 µg/mL; MIC ([4]; read-out: minimal inhibiting concentration, Pseudomonas aeruginosa isolate 2): > 8 µg/mL; MIC ([4]; read-out: minimal inhibiting concentration, Pseudomonas aeruginosa isolate 3): ≤ 2 µg/mL; MIC ([4]; read-out: minimal inhibiting concentration, Pseudomonas aeruginosa isolate 4): > 8 µg/mL; MIC ([4]; read-out: minimal inhibiting concentration, Pseudomonas aeruginosa isolate 5): > 8 µg/mL |
| Gentamicin [Gent.] | R | R | R | R | R | R | R | R | S | S | R | R | I | R | R | S | S | I | R | R | minimal inhibiting concentration [1, 5]: > 8 µg/mL; minimal inhibiting concentration [1, 6]: > 8 µg/mL; minimal inhibiting concentration [1, 7]: > 8 µg/mL; minimal inhibiting concentration [1, 8]: > 8 µg/mL; minimal inhibiting concentration [1, 9]: > 8 µg/mL; minimal inhibiting concentration ([2]; Escherichia coli isolate 1): > 8 µg/mL; minimal inhibiting concentration ([2]; Escherichia coli isolate 2): > 8 µg/mL; minimal inhibiting concentration ([2]; Escherichia coli isolate 3): > 8 µg/mL; minimal inhibiting concentration ([2]; Escherichia coli isolate 4): ≤ 2 µg/mL; minimal inhibiting concentration ([2]; Escherichia coli isolate 5): ≤ 2 µg/mL; minimal inhibiting concentration ([3]; Klebsiella ssp. isolate 1): > 8 µg/mL; minimal inhibiting concentration ([3]; Klebsiella ssp. isolate 2): > 8 µg/mL; minimal inhibiting concentration ([3]; Klebsiella ssp. isolate 3): 8 µg/mL; minimal inhibiting concentration ([3]; Klebsiella ssp. isolate 4): > 8 µg/mL; minimal inhibiting concentration ([3]; Klebsiella ssp. isolate 5): > 8 µg/mL; minimal inhibiting concentration [4, 10]: 4 µg/mL; minimal inhibiting concentration [4, 11]: 4 µg/mL; minimal inhibiting concentration [4, 12]: 8 µg/mL; minimal inhibiting concentration [4, 13]: > 8 µg/mL; minimal inhibiting concentration [4, 14]: > 8 µg/mL |
